Columns and labels:
[1] = target: T1, rRNA adenine N-6-methyltransferase (Staphylococcus aureus (strain N315)) (UniProt P0A0H2); assay: Inhibition of recombinant bacterial ErmC' expressed in Escherichia coli DH5alpha assessed as potentiation of erythromycin-mediated growth inhibition by measuring erythromycin MIC after 18 hrs by dilution method (reference value: > 2560 mg/L); conditions: Bacteria
T1 sequence (whole entry): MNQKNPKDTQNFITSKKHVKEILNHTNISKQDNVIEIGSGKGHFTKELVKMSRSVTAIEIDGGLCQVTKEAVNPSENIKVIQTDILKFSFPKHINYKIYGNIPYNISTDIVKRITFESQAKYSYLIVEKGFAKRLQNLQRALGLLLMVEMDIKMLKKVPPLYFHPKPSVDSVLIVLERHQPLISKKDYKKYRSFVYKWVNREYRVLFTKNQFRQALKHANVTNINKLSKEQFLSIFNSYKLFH

[2] = system: Escherichia coli; assay: Antibacterial activity against Escherichia coli DH5alpha expressing recombinant bacterial ErmC' after 18 hrs by dilution method; format: ADME, organism-based, DH5[alpha]
[3] = target: T2, rRNA adenine N-6-methyltransferase (Staphylococcus aureus (strain N315), UniProt P0A0H2); assay: Inhibition of bacterial C-terminal His6-tagged ErmC' (unknown origin) expressed in Escherichia coli BL21(DE3) assessed as decrease in rRNA methylation using [methyl-3H]AdoMet measured after 1 hr; set-up: species or system Bacteria
T2 sequence (P0A0H2 whole entry): T1 sequence (whole entry)

[4] = Cytotoxicity against HEK293 cells assessed as cell viability at 125 to 1000 uM after 24 hrs by MTT assay relative to control; format: cell-based; conditions: human
[5] = target: rRNA adenine N-6-methyltransferase (Staphylococcus aureus, UniProt P02979); assay: Inhibition of Staphylococcus aureus ErmC' expressed in Bacillus subtilis BD170 assessed as decrease in rRNA methylation using [methyl-3H]AdoMet measured after 120 mins by beta-plate counting method
[6] = target: T1, rRNA adenine N-6-methyltransferase (Staphylococcus aureus (strain N315)); assay: Inhibition of bacterial C-terminal His6-tagged ErmC' expressed in Escherichia coli BL21(DE3) assessed as decrease of protein binding to [gamma-33P]ATP-labeled 32-nt oligonucleotide at 6.25 mM after 30 mins by filter binding assay relative to control; conditions: Bacteria
[7] = Cytotoxicity against HEK293 cells assessed as cell viability at 125 uM after 24 hrs by MTT assay relative to control; format: cell-based; conditions: human, read-out: Activity
[8] = target: T1, rRNA adenine N-6-methyltransferase (Staphylococcus aureus (strain N315)); assay: Inhibition of bacterial C-terminal His6-tagged ErmC' expressed in Escherichia coli BL21(DE3) assessed as decrease of protein binding to [gamma-33P]ATP-labeled 32-nt oligonucleotide at 5.01 mM after 30 mins by filter binding assay relative to control; conditions: Bacteria
[9] = Cytotoxicity against HEK293 cells assessed as cell viability at 1000 uM after 24 hrs by MTT assay relative to control; format: cell-based; conditions: human, read-out: Activity
[10] = system: HEK293; assay: Cytotoxicity against HEK293 cells assessed as decrease in cell viability after 24 hrs by MTT assay; format: cell-based; conditions: human, hek293, 24 h
[11] = target: T1, rRNA adenine N-6-methyltransferase (Staphylococcus aureus (strain N315)); assay: Uncompetitive inhibition of bacterial C-terminal His6-tagged ErmC' expressed in Escherichia coli BL21(DE3) in presence of [methyl-3H]SAM; conditions: Bacteria

rRNA adenine N-6-methyltransferase (Staphylococcus aureus, UniProt P02979), sequence (P02979 whole entry): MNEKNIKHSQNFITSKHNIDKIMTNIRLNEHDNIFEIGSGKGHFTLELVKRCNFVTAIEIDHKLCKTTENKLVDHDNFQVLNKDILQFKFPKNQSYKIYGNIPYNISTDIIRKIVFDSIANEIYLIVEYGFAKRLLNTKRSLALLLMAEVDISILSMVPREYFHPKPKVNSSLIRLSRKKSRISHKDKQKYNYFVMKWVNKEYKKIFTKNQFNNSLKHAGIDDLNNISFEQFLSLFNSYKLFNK

Row | SMILES | MIC [1] | MIC [2] | further results
1 | O=C(Cc1cn2ccsc2n1)Nc1cccc(N2CCCC2=O)c1 | 2560 µg/mL | >= 100 mg/L | 
2 | O=C(c1n[nH]c(=O)[nH]1)N1CCN(c2ccc(C(F)(F)F)cn2)CC1 | 2560 µg/mL | >= 100 mg/L | 
3 | CCCc1cc(C(=O)Nc2cccc(OCc3ccncc3)c2)[nH]n1 | > 2560 µg/mL | >= 100 mg/L | 
4 | Nn1c(SCc2nc3ccccc3[nH]2)nnc1-c1ccncc1 | > 2560 µg/mL | >= 100 mg/L | 
5 | O=C(NCCOc1ccc2c(c1)OCO2)c1ccc2ccccc2n1 | > 2560 µg/mL | >= 100 mg/L | 
6 | O=C(Nc1cccc(NCc2ccncc2)c1)c1ccccc1Cl | 2560 µg/mL | >= 100 mg/L | 
7 | FC(F)(F)c1ccc(N2CCN(Cc3cn4ccccc4n3)CC2)nc1 | 2560 µg/mL | >= 100 mg/L | 
8 | Cc1cnc(C(=O)NCCNc2ncccc2C(F)(F)F)cn1 | 2560 µg/mL | >= 100 mg/L | IC50 [3]: Not Active
9 | O=C(c1csc(Nc2ncccn2)n1)N1CCN(c2ccc(C(F)(F)F)cn2)CC1 | 2000 µg/mL | >= 100 mg/L | viability at 24 h, up to 1000 µM ([4]; read-out: Activity): 59 to 67%
10 | O=C(Nc1cccc(NC(=O)c2cccc(F)c2)c1)c1ccncc1 | 2560 µg/mL | >= 100 mg/L | 
11 | O=C(NCc1cccc(Cn2ccnc2)c1)c1cc2ccccc2o1 | > 2560 µg/mL | >= 100 mg/L | 
12 | O=C(c1cc(C2CC2)n[nH]1)N1CCN(c2ccc(C(F)(F)F)cn2)CC1 | 2560 µg/mL | >= 100 mg/L | 
13 | O=C(c1cn(-c2ccccc2)nn1)N1CCN(c2ccc(C(F)(F)F)cn2)CC1 | 2560 µg/mL | >= 100 mg/L | 
14 | CC(=O)c1c[nH]c(C(=O)N2CCN(c3ccc(C(F)(F)F)cn3)CC2)c1 | 2560 µg/mL | >= 100 mg/L | 
15 | O=C(NCCNc1ncccc1C(F)(F)F)c1cnccn1 | 2560 µg/mL | >= 100 mg/L | IC50 [3]: Not Active
16 | Cn1cnnc1-c1cccc(NC(=O)Cc2cccc(F)c2)c1 | 2560 µg/mL | >= 100 mg/L | 
17 | CC(C)c1ccc(NC(=S)N/N=C/c2cc(Cl)cc(Cl)c2O)cc1 |  |  | IC50 [5]: 450 nM
18 | COC(=O)c1sc2ccccc2c1OS(=O)(=O)c1ccc(Cl)cc1 |  |  | fold change (FC) [6]: 3
19 | O=C(CSc1nnc2c(n1)[nH]c1ccccc12)Nc1ccccn1 | 2560 µg/mL | >= 100 mg/L | 
20 | Cc1nccn1-c1ccc(CNc2nc3ccccc3o2)cc1F | 2000 µg/mL | >= 100 mg/L | IC50 [3]: Not Active
21 | O=C(CSc1nc2[nH]cnc2c(=O)[nH]1)Nc1ccc(O)cc1 | 2560 µg/mL | >= 100 mg/L | IC50 [3]: Not Active
22 | CCC1N=C(C)C(CN2CCN(c3ccc(C(F)(F)F)cn3)CC2)=N1 (stereo not drawn) | 2000 µg/mL | >= 100 mg/L | IC50 [3]: Not Active
23 | O=C(c1cc(Cl)c[nH]1)N1CCN(c2ncc(C(F)(F)F)cc2Cl)CC1 | 2000 µg/mL | >= 100 mg/L | 
24 | FC(F)(F)c1ccc(N2CCN(Cc3c[nH]c(-c4ccccc4)n3)CC2)nc1 | 2560 µg/mL | >= 100 mg/L | 

Row | SMILES | MIC [1] | MIC [2] | further results
25 | Nc1nc(N)nc(COC(=O)c2occc2COc2ccccc2)n1 | 2560 µg/mL | >= 100 mg/L | IC50 [3]: Not Active
26 | Cc1cnc(C(=O)NCCNc2ccc(C(F)(F)F)cn2)cn1 | 2560 µg/mL | >= 100 mg/L | IC50 [3]: Not Active
27 | COc1ccc(C(=O)CSc2nc(O)cc(=O)[nH]2)cc1 | 2000 µg/mL | >= 100 mg/L | 
28 | O=C(c1c[nH]c(=O)[nH]1)N1CCN(c2ccc(C(F)(F)F)cn2)CC1 | 2560 µg/mL | >= 100 mg/L | viability at 24 h, 125 µM [7]: 58%; fold change (FC) [8]: 2; viability at 24 h, 1000 µM [9]: 68%
29 | CC(=O)Nc1nc(C)c(-c2csc(Nc3cccc(O)c3)n2)s1 | 2000 µg/mL | >= 100 mg/L | viability at 24 h, up to 1000 µM ([4]; read-out: %max): 4.5%
30 | O=C(CCn1cncn1)NCc1cccc(NC(=O)C2CCCC2)c1 | 2560 µg/mL | >= 100 mg/L | IC50 [3]: Not Active
31 | O=C(NCCSc1ccccc1)c1ccc(-n2cncn2)cc1 | 2560 µg/mL | >= 100 mg/L | 
32 | O=C(NCCNc1ccc(C(F)(F)F)cn1)c1cnccn1 | 2000 µg/mL | >= 100 mg/L | IC50 [3]: Not Active
33 | O=C(NC1CCN(c2nc3ccccc3s2)CC1)c1ccncc1 | 2560 µg/mL | >= 100 mg/L | 
34 | O=C(c1ccn[nH]1)N1CCN(c2ccc(C(F)(F)F)cn2)CC1 | 2560 µg/mL | >= 100 mg/L | IC50 [3]: Not Active
35 | O=C(CSc1nc2cccnc2[nH]1)Nc1nccs1 | 2000 µg/mL | >= 100 mg/L | 
36 | O=C(Nc1ccncc1)c1ccn(COc2ccc(F)c(Cl)c2)n1 | 2000 µg/mL | >= 100 mg/L | 
37 | Cc1nccc(C(=O)Nc2cc(NC(=O)c3ccccc3)ccc2C)n1 | 2560 µg/mL | >= 100 mg/L | IC50 [3]: Not Active
38 | O=C(Nc1nccs1)c1cc(-c2ccccn2)nc2ccccc12 | 2560 µg/mL | >= 100 mg/L | 
39 | CN(C)c1ccc(CNC(=O)c2ccc(-n3cncn3)cc2)cc1 | 2000 µg/mL | >= 100 mg/L | 
40 | O=C(Cc1cccc(F)c1)Nc1cccc(-c2ccn[nH]2)c1 | 2560 µg/mL | >= 100 mg/L | 
41 | O=C(c1cnn[nH]1)N1CCN(c2ccc(C(F)(F)F)cn2)CC1 | 2560 µg/mL | >= 100 mg/L | 
42 | Cc1cc(S(N)(=O)=O)cc(NC(=O)Cn2cnc(C#N)n2)c1C | 2560 µg/mL | >= 100 mg/L | IC50 [3]: Not Active
43 | O=C(Nc1ccn(CCc2ccncc2)n1)Nc1ccc(F)cc1F | > 2560 µg/mL | >= 100 mg/L | 
44 | Nc1nc(N)nc(CSc2nnc(NCc3ccccc3)s2)n1 | 2560 µg/mL | >= 100 mg/L | 
45 | CC(=O)Nc1ccc(S(=O)(=O)NCCc2ccncc2)cc1 | > 2560 µg/mL | >= 100 mg/L | 
46 | Cc1cccc(Nc2nc(C(=O)N3CCN(c4ccc(C(F)(F)F)cn4)CC3)cs2)n1 | 2560 µg/mL | >= 100 mg/L | viability at 24 h, 125 µM [7]: 59%; Activity [10]: Dose-dependent effect; viability at 24 h, 1000 µM [9]: 16%; alphaKi [11]: 155 µM
47 | Cc1occc1C(=O)Nc1nc(CC(=O)Nc2ccccc2)cs1 | 2560 µg/mL | >= 100 mg/L | 

From ChEMBL document CHEMBL4145498, “Novel inhibitors of the rRNA ErmC' methyltransferase to block resistance to macrolides, lincosamides, streptogramine B antibiotics” (Eur J Med Chem, 2018)
